According to US6903133B2, “Anticancer compounds” (Plantaceutica, Inc., priority 2002, dated 2005):

tested on: KB cells; test: cytotoxicity against KB cells (sulforhodamine B assay); format: cell-based; conditions: KB cells (nasopharyngeal carcinoma cells); result in words only
Procedure: Podophyllotoxin derivatives of this invention can be preliminarily screened for their efficacy in treating cancer by in vitro assays. For example, podophyllotoxin derivatives can be tested for their cytotoxicity against KB cells (nasopharyngeal carcinoma). More specifically, a test compound can be added to a culture of KB cells and its IC50 (i.e., the concentration of the test compound which achieves a half-maximal inhibition of cell growth) is determined using the sulforhodamine B (a protein binding dye) assay as described in J.N.C.I. (1990) 82: 1107. The podophyllotoxin derivatives of this invention are also tested for their abilitives to inhibit DNA topoisomerase II in vitro as described in Cho et al. (1996 J. Med. Chem. 39: 1396) and to stimulate protein-linked DNA breaks (PLDB) in KB cells as described in Rowe et al. (1986 Cancer Res. 46:2021). DNA topoisomerase II is a well known target for cancer treatment drugs. See, e.g., MacDonald et al. (1991) DNA Topoisomerase in Cancer; Oxford University Press: New York.
A number of compounds of this invention were evaluated for cytotoxicity against KB cells, which are nasopharyngeal carcinoma cells. They were also tested for stimulation of cellular protein-linked DNA breaks (PLDB) using etoposide as a positive control. Etopside is a widely-used antineoplastic agent, see, e.g., Zhang et al. (1994) J. Med. Chem. 37: 446.

Structure (SMILES) | IC50 values against KB cells
COc1cc([C@@H]2c3cc4c(cc3[C@@H](Nc3nc(COC(C)=O)cs3)[C@@H]3COC(=O)[C@H]23)OCO4)cc(OC)c1O [Compound 36, 4′-O-demethyl-4β-[4″-(methyl-O-acetyl)-2″-thiazolylamino]-4-desoxypodophyllotoxin] | unexpectedly low
CCOC(=O)c1ccc(N[C@@H]2c3cc4c(cc3[C@@H](c3cc(OC)c(O)c(OC)c3)[C@H]3C(=O)OC[C@H]32)OCO4)nc1 [Compound 39] | unexpectedly low
CCOC(=O)c1sc(N[C@@H]2c3cc4c(cc3[C@@H](c3cc(OC)c(O)c(OC)c3)[C@H]3C(=O)OC[C@H]32)OCO4)nc1C [Compound 45, 4′-O-demethyl-4β-(5″-ethoxycarbonyl-4″-methyl-2″-thiazolylamino)-4-desoxypodophyllotoxin] | unexpectedly low
COc1cc([C@@H]2c3cc4c(cc3[C@@H](Nc3ncc([N+](=O)[O-])s3)[C@@H]3COC(=O)[C@H]23)OCO4)cc(OC)c1O [Compound 49, 4′-O-demethyl-4β-(5″-nitro-2″-thiazolylamino)-4-desoxypodophyllotoxin] | unexpectedly low
